For 9 compounds, IC50 and ΔTm results are on record in paper PMC10427684, “Diversity-oriented synthesis encoded by deoxyoligonucleotides” (Nature Communications, 2023).

Bounds are passed on as bounds.

T2 sequence (P08515 2-218): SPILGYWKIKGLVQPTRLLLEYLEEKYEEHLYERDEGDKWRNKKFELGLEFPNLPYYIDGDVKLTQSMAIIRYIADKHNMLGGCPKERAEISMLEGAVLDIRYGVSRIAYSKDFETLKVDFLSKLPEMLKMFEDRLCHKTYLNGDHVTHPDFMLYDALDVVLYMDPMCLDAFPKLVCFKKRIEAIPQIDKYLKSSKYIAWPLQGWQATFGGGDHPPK

The first assay deals with T1, Carbonic anhydrase II (CAII), BioVision kit #K473-100 (Homo sapiens, UniProt P00918).
T1 construct: gene CA2; kit enzyme
Nature of the assay: biochemical.
Conditions: not given
Further details: CAII esterase activity inhibition kit, absorbance at 405 nm, dose-response. As to the method:
Carbonic anhydrase II (CAII) inhibition assays were performed using a commercially available kit (BioVision, #K473-100), following the manufacturer’s protocol. For each assayed DOSEDO compound, 11 concentrations (half-log dilutions from 10 µM to 100 pM) were tested, with three technical replicates performed on each of two separate 384-well µClear® medium-binding, flat-bottom polystyrene microplates (Greiner Bio-One, #82051-294) (n = 6 for each compound concentration); for 53 only, six technical replicates (n = 6) were performed on the same plate for each compound concentration. Each reaction well contained 3 µL of compound (prepared in 10% DMSO, 90% kit buffer), 25.5 µL of enzyme/buffer mix (1.4 µL enzyme, 24.1 µL kit buffer), and 1.5 µL of substrate, for a total volume of 30 µL. Absorbance at 405 nm was read on a Molecular Devices SpectraMax i3x. In addition to the experimental conditions, a DMSO control and a no-enzyme control were each performed with three technical replicates on each plate, except for the experiment with 53, where six technical replicates for each control were performed on the same plate. The average change in absorbance for the no-enzyme control was subtracted from the change in absorbance over the same time interval for each experimental condition and the DMSO control on the same plate. For each concentration of each compound, relative activity was calculated separately for each replicate based on the average change in absorbance for the DMSO control on the same plate. Dose-response curves were fitted and IC50 values and 95% confidence intervals were calculated using GraphPad Prism v9.2.0. Curves were fitted using GraphPad Prism’s log(inhibitor) vs. response-variable slope nonlinear regression equation, with the top asymptote constrained to 100. Outliers were detected and removed via GraphPad Prism’s ROUT method, with a Q-value of 1%. Error bars (only shown if greater than the height of the symbol) represent 95% confidence intervals (Supplementary Fig. 22).
Usually IC50 stands for the point on the concentration scale where inhibition reaches its midpoint. In turn, `CNC(=O)[C@H]1C[C@@H](Oc2cccc(C3=CCNCC3)c2)CN1S(=O)(=O)c1ccc(S(N)(=O)=O)cc1` [compound 45, (2R,4R)-N-Methyl-1-((4-sulfamoylphenyl)sulfonyl)-4-(3-(1,2,3,6-tetrahydropyridin-4-yl)phenoxy)pyrrolidine-2-carboxamide] showed an IC50 of 26 nM.
`CC(=O)N1CC2(CN(Cc3ccc(S(N)(=O)=O)o3)C[C@@H]2c2ccc(-c3ccc(F)c(CN(C)C)c3)cc2)C1` [compound 46, (R)-5-((2-Acetyl-8-(3'-((dimethylamino)methyl)-4'-fluoro-[1,1'-biphenyl]-4-yl)-2,6-diazaspiro[3.4]octan-6-yl)methyl)furan-2-sulfonamide] yielded an IC50 of 279 nM.
As for `CNC(=O)[C@H]1C[C@H](Oc2cccc(-c3ccc(S(N)(=O)=O)cc3)c2)CN1Cc1cn2c(n1)CCC2` [compound 52, (2R,4S)-1-((6,7-Dihydro-5H-pyrrolo[1,2-a]imidazol-2-yl)methyl)-N-methyl-4-((4'-sulfamoyl-[1,1'-biphenyl]-3-yl)oxy)pyrrolidine-2-carboxamide], the IC50 worked out at 64 nM.
Still for that read-out and setting: for `CC(=O)N1C[C@H](c2ccc(-c3cccc(S(N)(=O)=O)c3)cc2)C2(C1)CN(C(=O)c1nc(C)n3c1CCCC3)C2` [compound 53, (R)-4'-(6-Acetyl-2-(3-methyl-5,6,7,8-tetrahydroimidazo[1,5-a]pyridine-1-carbonyl)-2,6-diazaspiro[3.4]octan-8-yl)-[1,1'-biphenyl]-3-sulfonamide] the value was greater than 10000 nM; for `CC(=O)N1C[C@@H](c2ccc(-c3ccc(S(N)(=O)=O)cc3)cc2)C2(C1)CN(C(=O)C(C)Oc1cccc(C#N)c1)C2` (stereo partly drawn) [compound 54, 4'-((8S)-6-Acetyl-2-(2-(3-cyanophenoxy)propanoyl)-2,6-diazaspiro[3.4]octan-8-yl)-[1,1'-biphenyl]-4-sulfonamide], 34 nM; for `C[C@H]1CN([C@@H](C)CO)S(=O)(=O)c2ccc(-c3ccc(S(N)(=O)=O)cc3)cc2O[C@H]1CN(C)C(=O)c1cnoc1-c1ccco1` [compound 57, 5-(Furan-2-yl)-N-(((4S,5R)-2-((S)-1-hydroxypropan-2-yl)-4-methyl-1,1-dioxido-8-(4-sulfamoylphenyl)-2,3,4,5-tetrahydrobenzo[b][1,4,5]oxathiazocin-5-yl)methyl)-N-methylisoxazole-4-carboxamide], 31 nM.
Same read-out and setting: for `C[C@H](CO)N1C[C@H](C)[C@@H](CN(C)C(=O)c2coc(S(C)(=O)=O)c2)Oc2cc(-c3ccc(S(N)(=O)=O)cc3)ccc2S1(=O)=O` [compound 58, N-(((4S,5S)-2-((R)-1-Hydroxypropan-2-yl)-4-methyl-1,1-dioxido-8-(4-sulfamoylphenyl)-2,3,4,5-tetrahydrobenzo[b][1,4,5]oxathiazocin-5-yl)methyl)-N-methyl-5-(methylsulfonyl)furan-3-carboxamide] the value was 17 nM; for `C[C@@H]1CN([C@@H](C)CO)S(=O)(=O)c2ccc(-c3ccc(S(N)(=O)=O)cc3)cc2O[C@H]1CN(C)C(=O)c1cnoc1-c1ccco1` [compound 59, 5-(Furan-2-yl)-N-(((4R,5R)-2-((S)-1-hydroxypropan-2-yl)-4-methyl-1,1-dioxido-8-(4-sulfamoylphenyl)-2,3,4,5-tetrahydrobenzo[b][1,4,5]oxathiazocin-5-yl)methyl)-N-methylisoxazole-4-carboxamide], 16 nM.

Another assay has as its target T2, glutathione S-transferase (GST), His-tagged (Schistosoma japonicum, UniProt P08515).
T2 construct: His-tagged GST (Abcam ab89494); also the GST portion of N-His-GST-tagged USP7 (Lys208-Glu560)
Nature of the assay: DSF with isolated His-tagged GST (dose-dependent thermal shift), confirmed by SPR. It counts as binding. Conditions: read-out: delta_Tm. In general terms: In SPR one partner is held on a chip, and binding of the other changes the refractive index at the surface.
As to `C=CCNc1ncc(C(=O)N2CC[C@H](c3cccc(-c4cc(F)cc(OCC(=O)O)c4)c3)[C@@H]2C(=O)NC)s1` [compound 3, 3], the ΔTm at 100 µM worked out at 3.3 °C.
